Measurements from patent publication EP2423217A1, “Peptide and protein affinity tag from mistic protein” (Forschungsverbund Berlin E.V., priority 2010, dated 2012).
Where no end group is shown, it is not given here.

Experiments:
[1] = target: T1, MB peptide (Bacillus subtilis, UniProt Q5BU39); assay: SPOT hybridization with TAMRA-MB: regeneration and reversibility; format: binding; design: made in house; host or cells: chemical SPOT synthesis on membrane (MultiPep synthesizer); details: 25 µM MB in 114 mM phosphate buffer with 50 mM NaF at pH 2.8, over night at 4°C; eight spots
Protocol: A SPOT-analysis was carried out in order to assess oligomerization of the MB peptide and its ability to tether molecules. This approach is analogous to that of affinity chromatography, in that a solid phase-bound synthesized MB peptide is used to bind and isolate a molecule of interest that is tagged with the protein affinity tag of the present invention.
The nitrocellulose membrane which contained the MB peptide was incubated, and thus hybridized, with TAMRA-MB (MB peptide to which the TAMRA colouring agent has been covalently attached). If the spots remained coloured after washing an oligomerisation was judged to have taken place. Solid-phase bound MB peptide was synthesized directly on the membranes. Whatman 50 filter paper (Whatman GmbH, Dassel, Germany) was used for membrane-bound peptide synthesis. SPOT positions with a diameter of 3 mm were defined by treating isolated locations on the membrane with coupling reagents. The membrane bound peptides were assembled by the SPOT synthesizer MultiPep (Intavis Bioanalytical Instruments AG, Köln, Germany) according to standard protocols.
Spotted membranes were washed and blocked according to standard protocols before hybridization. After rinsing once with incubation buffer membranes were hybridized with TAMRA-MB over night at 4 °C under agitation. Incubation results were documented by scanning the membranes with a HP scanjet at 600 dpi. […]

[2] = target: T1, MB peptide; assay: CD spectroscopy of MB oligomerization at different pH values; format: physicochemical; design: made in house; details: for ratio 208 nm / 222 nm: 154 mM NaF; for oligomer state: AUC and CD spectroscopy
From the text: The MB monomer is mostly unfolded (~70% random coil), whereby the MB tetramer forms an α-helix. […] This pH sensitive switchability is reversible and occurs completely and suddenly from pH 6.0 to 5.4.
• Figure 1: Molecular model of the secondary protein structure of the helical MB peptide. Hydrophobicity of the peptide MB is also indicated by differential after folding into an ideal helix. Hydrophilic groups are indicated with arrows from above, hydrophobic groups from below. (A) The hydrophobic areas in which the binding takes place. (B) View of the backside. • Figure 2: CD spectroscopy of MB at different pH values. Circular ellipticity of 50 µM MB at 208 nm or 222 nm was measured against buffer pH in 10 mM citrate or 10 mM phosphate buffer with 154 mM NaF at 20°C. Citrate buffer was applied for the pH range from pH 6.5 to 4 and phosphate buffer for the pH ranges 1.5 to 4 and 6.5 to 10. MB structure was uninfluenced by buffer type, because CD spectra in citrate buffer were equal to spectra in phosphate buffer in the overlapping pH regions. The wavelengths 208 nm and 222 nm are characteristic for α-helices. […] (A) The snapshots of the same membrane repeatedly hybridised (left) and regenerated (right) show similar results after each of the six repetitions. […] (B) Plot of the normalized median intensities of each spot against number of incubations. • Figure 4: Mutation analysis of the amino acids important in oligomerization. […] The amino acids numeration is shown as small numbers above the wild type letters, the wt sequence can be found in the middle (black frame). Letters listed vertically above the wt sequence intensify the interactions, letters below weaken or abolish. The bigger the letter size the stronger the influence, linear to the distance of the intensity to the wt mean intensity in times of SD, starting with a minimum of ±2 SD. • Figure 5: Summary of the single-point mutation and length analysis of the MB oligomerization (A) Single-point mutations substantially (p<0.05) influencing the oligomerization were grouped and are represented by bars above or below the wild type sequence (black frame).The amino acids numeration is shown as small numbers above the wild type letters. Bars above the wild type sequence signify an enhanced oligomerization and below a weakened or abolished. The bar size reflects the strength of the mutation's influences on the oligomerization. […] Amino acid positions which were especially mutation-susceptible are marked by a + or -. (B) MB was systematically truncated with a step size of two amino acids from either one of the termini or simultaneously both termini. The shortest still with TAMRA-MB oligomerizing truncates are shown in black frames.
In order to assess the oligomerization properties of MB peptide circular dichroism spectroscopy (CD spectroscopy) was carried out according to standard procedures. The MB tetramerization was triggered by acidic pH values while remaining unchanged in basic conditions. Starting from basic pH 10 down to slightly acidic pH 6 the structure of MB was invariable at constant concentrations. Between pH 6 to 5.4 a rapid and tremendous increase in helicity occurred. Below pH 5.4 the pronounced α-helical MB structure remained constant down to pH 1.5 (see Fig. 2).

[3] = physchem; details: aqueous buffer
[4] = target: T1, MB peptide; assay: Temperature dependence of MB peptide tetramerization; format: physicochemical; design: made in house
Protocol: The tetramerization of MB peptide is however dependent on temperature and the salt concentration of the buffer. In general, the proportion of MB peptide forming a tetramer is reduced with increasing temperature. At approximately 70°C, only monomers of the MB peptide are present. As the salt concentration increases, the tetramerisation increases accordingly at neutral pH values.

MKVTSEEKEQLSTAIDRMNEGLDAFIQLYNES [MB peptide]
consecutive incubations and regenerations with reproducible oligomerization [1]: six | pH range of switch from monomer to α-helical tetramer (increase in helicity) ([2]; 50 µM MB, 10 mM citrate or 10 mM phosphate buffer with 154 mM NaF, 20°C): 6 to 5.4 | random coil ([2]; MB monomer): ~ 70% | ratio 208 nm / 222 nm ([2]; pH<5.4, 50 µM MB, 20°C): 0.93 | ratio 208 nm / 222 nm ([2]; pH>6, 50 µM MB, 20°C): 2.18 | oligomer state ([2]; same concentration (50 µM), pH <5.4): converts completely into tetramer | oligomer state ([2]; up to 50 µM in phosphate buffer at pH 6.5): remains purely as monomer | solubility [3]: ≥ 2200 µM | temperature at which only monomers are present [4]: approximately 70 °C
